In patent publication US20250064957A1, “EXATECAN DERIVATIVES, LINKER-PAYLOADS, AND CONJUGATES AND THEREOF” (priority 2021, published 2025):

Experiments:
Assay type in all cases: cell-based
[1] = system: high HER2 tumor cell line SK-BR-3; test: Effect of small molecules on SK-BR-3 cell proliferation (CellTiter-Glo); conditions: SK-BR-3, 120 h incubation, relative biological activity with Dxd as control sample
Protocol: Study Purpose: In this experiment, cell viability was detected using CellTiter-Glo to evaluate the effects of the small molecule compounds on the proliferation of a high HER2 tumor cell line SK-BR-3, and to analyze the effects of the small molecule compounds on the proliferation of tumor cells.
• (1) Microscopic examination of cells • (2) Digestion: digested using 2 mL 0.25% trypsin for 3 minutes; • (3) Centrifuge: 1000 rpm for 5 min; • (4) Cell counting • A. Cell dilution: • B. Cell plating: in 100 μl/well • C. Incubation: 37° C., 5% CO2, overnight
• (1) Microscopic examination • (2) Drug preparation: • A. Preparation of Buffer for preparation of samples: the desired amount of Buffer for preparation of samples was prepared using the culture medium (10% FBS) for the testing cells; • B. Sample preparation: the sample was diluted from the first concentration to the desired concentration in a 96-well deep-well Plate.
Positive control Puromycin: A stock solution of 2.5 mg/ml was used, and diluted with the cell medium. A dilution of 250-fold was preformed, and then a dilution of 2-fold was preformed when applying the compounds to reach the testing concentration 5 μg/ml for puromycin. • (3) Application of the compounds: for each concentration of the diluted series, the compound was applied in triplicate. In 100 μl/well. • (4) After the drug was added, the cells were incubated in the incubator for 120 h.
• (1) Preparation of detection reagents: CellTiter-Glo Luminescent Cell Viability Assay detection reagent was allowed to warm to room temperature with protection from light • (2) Cell preparation: The cells to be tested were taken out from the incubator and equilibrated at room temperature (25° C.) 30 min. • (3) ATP detection: Discard the culture medium and 100 μl/well DMEM was added, 50 μl/hole CTG was added into 96-well plate, protected from light using aluminum foil and oscillated using a vortex oscillator at room temperature of 200 rpm for 10 min. • (4) Detection procedure: After setting up the procedure, the black-wall clear-bottom plate was placed in the instrument without its cover. • (5) Data acquisition.
GraphPad software was used to process the data. […] If necessary, the relative biological activity of sample A, i.e., ratio activity was calculated. Dxd was used as the control sample for the ratio activity calculation.
Cell proliferation inhibition rate (%)=([…])/(luminescence value of blank control group−luminescence value of puro group)×100; wherein the puro group refers to the group treated with puromycin
R^2 Value ≥0.950; CV % between parallel pores ≤30%.

[2] = system: SK-BR-3 HER2-high cell line; test: Effect of HER2-targeting conjugates on cell proliferation (CellTiter-Glo), SK-BR-3; conditions: SK-BR-3, 120 h
Protocol: (§1) Study Purpose: Cell viability was detected by CellTiter-Glo assay to evaluate the effects of the ADCs on the proliferation of two high HER2 tumor cell lines SK-BR-3, NCI-N87 and a HER2-negative tumor cell line MDA-MB-468, and to analyze the effects of the ADCs on the proliferation of tumor cells.
(§2) Positive control Puromycin: A stock solution of 10 mg/ml was used, and diluted with the cell medium. A dilution of 100-fold was preformed, and then a dilution of 10-fold was preformed when applying the compounds to reach the testing concentration 5 μg/ml for puromycin. • (4) Application of the compounds: for each concentration of the diluted series, the compound was applied in triplicate. […]

[3] = system: NCI-N87 HER2-high cell line; test: Effect of HER2-targeting conjugates on cell proliferation (CellTiter-Glo), NCI-N87; conditions: NCI-N87, 120 h
Protocol: as §1, §2

| Compound | Ratio activity (%) [1] [%] | IC50 [2] [nM] | IC50 [3] [nM] |
| --- | --- | --- | --- |
| CC[C@@]1(O)C(=O)OCc2c1cc1n(c2=O)Cc2c-1nc1cc(F)c(Br)c3c1c2[C@H](NC(=O)C[C@H](C)O)CC3 [C600] | 0.62 | – | – |
| CC[C@@]1(O)C(=O)OCc2c1cc1n(c2=O)Cc2c-1nc1cc(F)c(Br)c3c1c2[C@H](NC(=O)C[C@@H](C)O)CC3 [C602] | 0.29 | – | – |
| CC[C@@]1(O)C(=O)OCc2c1cc1n(c2=O)Cc2c-1nc1cc(F)c(Cl)c3c1c2[C@@H](NC(=O)[C@H](O)C(F)(F)F)CC3 [C626] | 0.54 | – | – |
| CC[C@@]1(O)C(=O)OCc2c1cc1n(c2=O)Cc2c-1nc1cc(F)c(Cl)c3c1c2[C@@H](NC(=O)CCCO)CC3 [C679] | 0.49 | – | – |
| CC[C@@]1(O)C(=O)OCc2c1cc1n(c2=O)Cc2c-1nc1cc(F)c(Cl)c3c1c2[C@H](N)CC3 [C731] | 0.82 | – | – |
| CC[C@@]1(O)C(=O)OCc2c1cc1n(c2=O)Cc2c-1nc1cc(F)c(C)c3c1c2[C@@H](NC(=O)CO)CC3 [Dxd] | 1 | 1.47 | 4.68 |
